Data published in patent publication EP0525960B1, “Use of rapamycin for the treatment of adult T-cell leukemia/lymphoma” (AMERICAN HOME PRODUCTS CORPORATION, priority 1991, dated 1993).

Columns and labels:
Type in all cases: cell-based
[1] = tested on: ten human HTLV-1 transformed T-cell lines; experiment: Inhibition of ATL cell proliferation, summary over the panel of ten cell lines; conditions: in 4 of the cell lines at a concentration of 1 nM, read-out: reduction in proliferation
Procedure: (§1) The effect of rapamycin on ATL was established in an in vitro standard pharmacological test procedure using ten human HTLV-1 transformed T-cell lines cultured from ATL patients. These cell lines are presently the best models for ATL in humans. Cyclosporin A (CsA) was also evaluated for the purpose of comparison. The procedure used and results obtained are described below.
ATL cell lines were established according to known literature procedures. ATL5S, ATL3I, and ATL1K were established according to the method of Hoshino [Proc. Natl. Acad. Sci, 80: 6061(1983)]. The cell lines 31008, 31009, 31016 and AT(EGG) were established from peripheral blood of HTLV-1 infected individuals via co-culture with cord blood lymphocytes. The cell line MALN was isolated from lymphoid tumor tissue of an HTLV-1 infected ATL patient seen at Jackson Memorial/University of Miami Medical Center. [Harrington, W.J., Jr., J. Acq. Imm. Def. Dis., 4: 284 (1991)]. The primary cultures BL and GP were initiated from peripheral blood of ATL patients. […]
Cells were adjusted to a concentration of 1x10⁶ cells/mL in RPMI 1640 with 15% fetal bovine serum and were supplemented with 50 U/mL penicillin, 50 µg/mL streptomycin, and 2 mM glutamine. […] Drug concentrations evaluated ranged from 1µM to 100 fM. […] Thymidine incorporation was measured by liquid scintillation counting, and the results expressed in counts per minute (cpm). […]

31009 = experiment: Inhibition of ATL cell proliferation (tritiated thymidine incorporation); conditions: Homo sapiens, 24 hours, read-out: PERCENT INHIBITION OF ATL CELL PROLIFERATION
Description: (§2) ATL cell lines were established according to known literature procedures. ATL5S, ATL3I, and ATL1K were established according to the method of Hoshino [Proc. Natl. Acad. Sci, 80: 6061(1983)]. The cell lines 31008, 31009, 31016 and AT(EGG) were established from peripheral blood of HTLV-1 infected individuals via co-culture with cord blood lymphocytes. The cell line MALN was isolated from lymphoid tumor tissue of an HTLV-1 infected ATL patient seen at Jackson Memorial/University of Miami Medical Center. [Harrington, W.J., Jr., J. Acq. Imm. Def. Dis., 4: 284 (1991)]. The primary cultures BL and GP were initiated from peripheral blood of ATL patients. The MALN, BL, and GP cell lines were initiated without co-cultivation.
(§3) Cells were adjusted to a concentration of 1x10⁶ cells/mL in RPMI 1640 with 15% fetal bovine serum and were supplemented with 50 U/mL penicillin, 50 µg/mL streptomycin, and 2 mM glutamine. […] Drug concentrations evaluated ranged from 1µM to 100 fM. Cultures were incubated at 37°C, 5% CO₂ for 24 hours followed by a 4 hr. pulse with 0.5 µCi of tritiated thymidine. Thymidine incorporation was measured by liquid scintillation counting, and the results expressed in counts per minute (cpm).

ATL5S = experiment: as above; conditions: Homo sapiens, 24 hours, read-out: PERCENT INHIBITION OF ATL CELL PROLIFERATION
Description: as §2, §3

GP = experiment: as above; conditions: Homo sapiens, 24 hours, read-out: PERCENT INHIBITION OF ATL CELL PROLIFERATION
Procedure: as §1, §2
as §3, with “(cpm). The results obtained from the mean of four evaluations at each concentration were compared with control values to determine percent inhibition. The following formula was used to calculate the percent inhibition: Percent Inhibition =(cpm[no drug] - cpm[drug])/(cpm[no drug])x 100 [formula] The percent inhibition obtained with rapamycin is shown in the following table.” for “(cpm).”

ATL1K = experiment: as above; conditions: Homo sapiens, 24 hours, read-out: PERCENT INHIBITION OF ATL CELL PROLIFERATION
Procedure: as §1, §2
as §3, with “(cpm). The results obtained from the mean of four evaluations at each concentration were compared with control values to determine percent inhibition. The following formula was used to calculate the percent inhibition: Percent Inhibition =(cpm[no drug] - cpm[drug])/(cpm[no drug])x 100 [formula] The percent inhibition obtained with rapamycin is shown in the following table.” for “(cpm).”

ATEGG = experiment: as above; conditions: Homo sapiens, 24 hours, read-out: PERCENT INHIBITION OF ATL CELL PROLIFERATION
Procedure: as §1, §2
as §3, with “(cpm). The results obtained from the mean of four evaluations at each concentration were compared with control values to determine percent inhibition. The following formula was used to calculate the percent inhibition: Percent Inhibition =(cpm[no drug] - cpm[drug])/(cpm[no drug])x 100 [formula] The percent inhibition obtained with rapamycin is shown in the following table.” for “(cpm).”

31008 = experiment: as above; conditions: Homo sapiens, 24 hours, read-out: PERCENT INHIBITION OF ATL CELL PROLIFERATION
Procedure: as §1, §2
as §3, with “(cpm). The results obtained from the mean of four evaluations at each concentration were compared with control values to determine percent inhibition. The following formula was used to calculate the percent inhibition: Percent Inhibition =(cpm[no drug] - cpm[drug])/(cpm[no drug])x 100 [formula] The percent inhibition obtained with rapamycin is shown in the following table.” for “(cpm).”

BL = experiment: as above; conditions: Homo sapiens, 24 hours, read-out: PERCENT INHIBITION OF ATL CELL PROLIFERATION
Procedure: as §1, §2
as §3, with “(cpm). The results obtained from the mean of four evaluations at each concentration were compared with control values to determine percent inhibition. The following formula was used to calculate the percent inhibition: Percent Inhibition =(cpm[no drug] - cpm[drug])/(cpm[no drug])x 100 [formula] The percent inhibition obtained with rapamycin is shown in the following table.” for “(cpm).”

MALN = experiment: as above; conditions: Homo sapiens, 24 hours, read-out: PERCENT INHIBITION OF ATL CELL PROLIFERATION
Procedure: as §1, §2
as §3, with “(cpm). The results obtained from the mean of four evaluations at each concentration were compared with control values to determine percent inhibition. The following formula was used to calculate the percent inhibition: Percent Inhibition =(cpm[no drug] - cpm[drug])/(cpm[no drug])x 100 [formula] The percent inhibition obtained with rapamycin is shown in the following table.” for “(cpm).”

ATL3I = experiment: as above; conditions: Homo sapiens, 24 hours, read-out: PERCENT INHIBITION OF ATL CELL PROLIFERATION
Procedure: as §1, §2
as §3, with “(cpm). The results obtained from the mean of four evaluations at each concentration were compared with control values to determine percent inhibition. The following formula was used to calculate the percent inhibition: Percent Inhibition =(cpm[no drug] - cpm[drug])/(cpm[no drug])x 100 [formula] The percent inhibition obtained with rapamycin is shown in the following table.” for “(cpm).”

31016 = experiment: as above; conditions: Homo sapiens, 24 hours, read-out: PERCENT INHIBITION OF ATL CELL PROLIFERATION
Procedure: as §1, §2
as §3, with “(cpm). The results obtained from the mean of four evaluations at each concentration were compared with control values to determine percent inhibition. The following formula was used to calculate the percent inhibition: Percent Inhibition =(cpm[no drug] - cpm[drug])/(cpm[no drug])x 100 [formula] The percent inhibition obtained with rapamycin is shown in the following table.” for “(cpm).”

CO[C@H]1C[C@@H]2CC[C@@H](C)[C@@](O)(O2)C(=O)C(=O)N2CCCC[C@H]2C(=O)O[C@H]([C@H](C)C[C@@H]2CC[C@@H](O)[C@H](OC)C2)CC(=O)[C@H](C)/C=C(\C)[C@@H](O)[C@@H](OC)C(=O)[C@H](C)C[C@H](C)/C=C/C=C/C=C/1C [Rapamycin]
inhibition at 0.001 µM [1]: 50% | inhibition at 1 pM (31009; Rapamycin Concentration 1 pM): 59% | inhibition at 10 pM (31009; Rapamycin Concentration 10 pM): 47% | inhibition at 0.0001 µM (31009; Rapamycin Concentration 100 pM): 61% | inhibition at 0.001 µM (31009; Rapamycin Concentration 1 nM): 68% | inhibition at 0.01 µM (31009; Rapamycin Concentration 10 nM): 67% | inhibition at 0.1 µM (31009; Rapamycin Concentration 100 nM): 70% | inhibition at 1 µM (31009; Rapamycin Concentration 1 µM): 71% | inhibition at 100 fM (31009; Rapamycin Concentration 100 fM): 60% | inhibition at 1 pM (ATL5S; Rapamycin Concentration 1 pM): 14% | inhibition at 10 pM (ATL5S; Rapamycin Concentration 10 pM): 38% | inhibition at 0.0001 µM (ATL5S; Rapamycin Concentration 100 pM): 47% | inhibition at 0.001 µM (ATL5S; Rapamycin Concentration 1 nM): 48% | inhibition at 0.01 µM (ATL5S; Rapamycin Concentration 10 nM): 49% | inhibition at 0.1 µM (ATL5S; Rapamycin Concentration 100 nM): 58% | inhibition at 1 µM (ATL5S; Rapamycin Concentration 1 µM): 59% | inhibition at 100 fM (ATL5S; Rapamycin Concentration 100 fM): 36% | inhibition at 1 pM (GP; Rapamycin Concentration 1 pM): 20% | inhibition at 10 pM (GP; Rapamycin Concentration 10 pM): 14% | inhibition at 0.0001 µM (GP; Rapamycin Concentration 100 pM): 39% | inhibition at 0.001 µM (GP; Rapamycin Concentration 1 nM): 42% | inhibition at 0.01 µM (GP; Rapamycin Concentration 10 nM): 46% | inhibition at 0.1 µM (GP; Rapamycin Concentration 100 nM): 46% | inhibition at 1 µM (GP; Rapamycin Concentration 1 µM): 54% | inhibition at 100 fM (GP; Rapamycin Concentration 100 fM): 23% | inhibition at 1 pM (ATL1K; Rapamycin Concentration 1 pM): 15% | inhibition at 10 pM (ATL1K; Rapamycin Concentration 10 pM): 12% | inhibition at 0.0001 µM (ATL1K; Rapamycin Concentration 100 pM): 23% | inhibition at 0.001 µM (ATL1K; Rapamycin Concentration 1 nM): 26% | inhibition at 0.01 µM (ATL1K; Rapamycin Concentration 10 nM): 18% | inhibition at 0.1 µM (ATL1K; Rapamycin Concentration 100 nM): 32% | inhibition at 1 µM (ATL1K; Rapamycin Concentration 1 µM): 19% | inhibition at 100 fM (ATL1K; Rapamycin Concentration 100 fM): 15% | inhibition at 1 pM (ATEGG; Rapamycin Concentration 1 pM): 48% | inhibition at 10 pM (ATEGG; Rapamycin Concentration 10 pM): 44% | inhibition at 0.0001 µM (ATEGG; Rapamycin Concentration 100 pM): 49% | inhibition at 0.001 µM (ATEGG; Rapamycin Concentration 1 nM): 53% | inhibition at 0.01 µM (ATEGG; Rapamycin Concentration 10 nM): 45% | inhibition at 0.1 µM (ATEGG; Rapamycin Concentration 100 nM): 60% | inhibition at 1 µM (ATEGG; Rapamycin Concentration 1 µM): 58% | inhibition at 100 fM (ATEGG; Rapamycin Concentration 100 fM): 44% | inhibition at 1 pM (31008; Rapamycin Concentration 1 pM): 30% | inhibition at 10 pM (31008; Rapamycin Concentration 10 pM): 31% | inhibition at 0.0001 µM (31008; Rapamycin Concentration 100 pM): 45% | inhibition at 0.001 µM (31008; Rapamycin Concentration 1 nM): 54% | inhibition at 0.01 µM (31008; Rapamycin Concentration 10 nM): 58% | inhibition at 0.1 µM (31008; Rapamycin Concentration 100 nM): 68% | inhibition at 1 µM (31008; Rapamycin Concentration 1 µM): 69% | inhibition at 100 fM (31008; Rapamycin Concentration 100 fM): 29% | inhibition at 1 pM (BL; Rapamycin Concentration 1 pM): 56% | inhibition at 10 pM (BL; Rapamycin Concentration 10 pM): 55% | inhibition at 0.0001 µM (BL; Rapamycin Concentration 100 pM): 65% | inhibition at 0.001 µM (BL; Rapamycin Concentration 1 nM): 73% | inhibition at 0.01 µM (BL; Rapamycin Concentration 10 nM): 76% | inhibition at 0.1 µM (BL; Rapamycin Concentration 100 nM): 79% | inhibition at 1 µM (BL; Rapamycin Concentration 1 µM): 80% | inhibition at 100 fM (BL; Rapamycin Concentration 100 fM): 51% | inhibition at 1 pM (MALN; Rapamycin Concentration 1 pM): 36% | inhibition at 10 pM (MALN; Rapamycin Concentration 10 pM): 26% | inhibition at 0.0001 µM (MALN; Rapamycin Concentration 100 pM): 37% | inhibition at 0.001 µM (MALN; Rapamycin Concentration 1 nM): 43% | inhibition at 0.01 µM (MALN; Rapamycin Concentration 10 nM): 41% | inhibition at 0.1 µM (MALN; Rapamycin Concentration 100 nM): 54% | inhibition at 1 µM (MALN; Rapamycin Concentration 1 µM): 55% | inhibition at 100 fM (MALN; Rapamycin Concentration 100 fM): 36% | inhibition at 1 pM (ATL3I; Rapamycin Concentration 1 pM): 11% | inhibition at 10 pM (ATL3I; Rapamycin Concentration 10 pM): 6% | inhibition at 0.0001 µM (ATL3I; Rapamycin Concentration 100 pM): 11% | inhibition at 0.001 µM (ATL3I; Rapamycin Concentration 1 nM): 18% | inhibition at 0.01 µM (ATL3I; Rapamycin Concentration 10 nM): 15% | inhibition at 0.1 µM (ATL3I; Rapamycin Concentration 100 nM): 17% | inhibition at 1 µM (ATL3I; Rapamycin Concentration 1 µM): 28% | inhibition at 100 fM (ATL3I; Rapamycin Concentration 100 fM): 7% | inhibition at 1 pM (31016; Rapamycin Concentration 1 pM): 50% | inhibition at 10 pM (31016; Rapamycin Concentration 10 pM): 47% | inhibition at 0.0001 µM (31016; Rapamycin Concentration 100 pM): 49% | inhibition at 0.001 µM (31016; Rapamycin Concentration 1 nM): 48% | inhibition at 0.01 µM (31016; Rapamycin Concentration 10 nM): 49% | inhibition at 0.1 µM (31016; Rapamycin Concentration 100 nM): 56% | inhibition at 1 µM (31016; Rapamycin Concentration 1 µM): 59% | inhibition at 100 fM (31016; Rapamycin Concentration 100 fM): 44%
